Source: ChEMBL document CHEMBL1255557, “Heterobiaryl and heterobiaryl ether derived M5 positive allosteric modulators” (Bioorg Med Chem Lett, 2010)
Active and inactive are the calls of the source. The rule behind the calls is not given here.

Columns and labels:
[1] = target: T1, Muscarinic acetylcholine receptor M4 (Homo sapiens, UniProt P08173); test: Positive allosteric modulation of muscarinic M4 receptor expressed in CHO cells co-expressing Gqi5 assessed as effect on acetylcholine-induced intracellular calcium mobilization after 1 hr by FLIPR assay; format: functional, cell-based
T1 sequence (P08173 whole entry): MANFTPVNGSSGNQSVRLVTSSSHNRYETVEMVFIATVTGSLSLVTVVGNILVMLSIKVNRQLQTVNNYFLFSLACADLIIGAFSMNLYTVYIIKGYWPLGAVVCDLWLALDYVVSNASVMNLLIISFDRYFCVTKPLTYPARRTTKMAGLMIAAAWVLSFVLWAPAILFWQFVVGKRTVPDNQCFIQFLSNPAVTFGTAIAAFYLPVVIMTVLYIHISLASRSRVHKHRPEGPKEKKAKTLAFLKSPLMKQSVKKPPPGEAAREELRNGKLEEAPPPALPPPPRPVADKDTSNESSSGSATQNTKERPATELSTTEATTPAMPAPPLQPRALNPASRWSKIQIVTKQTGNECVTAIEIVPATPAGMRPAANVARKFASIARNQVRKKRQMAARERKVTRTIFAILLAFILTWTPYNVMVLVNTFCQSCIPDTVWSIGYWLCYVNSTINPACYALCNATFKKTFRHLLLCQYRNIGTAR

[2] = target: T2, Muscarinic acetylcholine receptor M2 (Homo sapiens, UniProt P08172); test: Positive allosteric modulation of muscarinic M2 receptor expressed in CHO cells co-expressing Gqi5 assessed as effect on acetylcholine-induced intracellular calcium mobilization after 1 hr by FLIPR assay
T2 sequence (P08172 whole entry): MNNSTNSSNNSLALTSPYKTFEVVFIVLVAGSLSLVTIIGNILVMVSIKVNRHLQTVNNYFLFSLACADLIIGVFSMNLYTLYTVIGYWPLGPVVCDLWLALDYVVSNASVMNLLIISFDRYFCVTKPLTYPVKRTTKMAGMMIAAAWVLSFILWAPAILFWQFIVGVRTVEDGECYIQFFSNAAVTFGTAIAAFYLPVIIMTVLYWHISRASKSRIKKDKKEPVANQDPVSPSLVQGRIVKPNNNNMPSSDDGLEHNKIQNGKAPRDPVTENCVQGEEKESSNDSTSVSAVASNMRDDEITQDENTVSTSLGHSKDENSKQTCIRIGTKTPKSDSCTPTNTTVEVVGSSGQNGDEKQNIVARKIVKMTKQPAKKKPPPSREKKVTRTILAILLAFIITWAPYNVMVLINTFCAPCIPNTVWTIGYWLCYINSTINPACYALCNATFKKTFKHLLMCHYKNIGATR

[3] = target: T3, Muscarinic acetylcholine receptor M5 (Homo sapiens, UniProt P08912); test: Positive allosteric modulation of muscarinic M5 receptor expressed in CHO cells assessed as effect on acetylcholine-induced intracellular calcium mobilization after 1 hr by FLIPR assay; format: functional, cell-based
T3 sequence (P08912 whole entry): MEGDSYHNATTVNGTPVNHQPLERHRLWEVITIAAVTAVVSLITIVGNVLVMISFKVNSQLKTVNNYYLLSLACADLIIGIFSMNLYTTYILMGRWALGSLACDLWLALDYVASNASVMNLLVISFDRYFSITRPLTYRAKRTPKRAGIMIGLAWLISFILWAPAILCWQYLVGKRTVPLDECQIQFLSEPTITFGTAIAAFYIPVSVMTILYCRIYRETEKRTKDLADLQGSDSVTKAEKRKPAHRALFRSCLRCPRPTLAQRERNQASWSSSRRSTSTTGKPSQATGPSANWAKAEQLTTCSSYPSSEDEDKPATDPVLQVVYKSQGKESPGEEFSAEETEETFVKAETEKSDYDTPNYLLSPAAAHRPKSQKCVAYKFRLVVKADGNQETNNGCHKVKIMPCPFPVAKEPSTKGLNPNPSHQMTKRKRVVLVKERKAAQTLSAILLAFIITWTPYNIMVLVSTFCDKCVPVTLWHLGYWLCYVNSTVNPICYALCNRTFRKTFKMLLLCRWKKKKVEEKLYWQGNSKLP

[4] = target: T4, Muscarinic acetylcholine receptor M4 (Homo sapiens) (UniProt P08173); test: Positive allosteric modulation of muscarinic M4 receptor expressed in CHO cells co-expressing Gqi5 assessed as potentiation of acetylcholine-induced intracellular calcium mobilization at 30 uM after 1 hr by FLIPR assay relative to acetylcholine; format: functional, cell-based
T4 sequence (whole entry): T1 sequence (P08173 whole entry)

[5] = target: T5, Muscarinic acetylcholine receptor M5 (Homo sapiens) (UniProt P08912); test: Positive allosteric modulation of muscarinic M5 receptor expressed in CHO cells assessed as potentiation of acetylcholine-induced intracellular calcium mobilization at 30 uM after 1 hr by FLIPR assay relative to acetylcholine; format: functional, cell-based
T5 sequence (whole entry): T3 sequence (P08912 whole entry)

[6] = target: Muscarinic acetylcholine receptor M3 (Homo sapiens) (UniProt P20309); test: Positive allosteric modulation of muscarinic M3 receptor expressed in CHO cells assessed as potentiation of acetylcholine-induced intracellular calcium mobilization at 30 uM after 1 hr by FLIPR assay relative to acetylcholine; format: functional, cell-based
Sequence of Muscarinic acetylcholine receptor M3 (Homo sapiens) (P20309 whole entry, looked up): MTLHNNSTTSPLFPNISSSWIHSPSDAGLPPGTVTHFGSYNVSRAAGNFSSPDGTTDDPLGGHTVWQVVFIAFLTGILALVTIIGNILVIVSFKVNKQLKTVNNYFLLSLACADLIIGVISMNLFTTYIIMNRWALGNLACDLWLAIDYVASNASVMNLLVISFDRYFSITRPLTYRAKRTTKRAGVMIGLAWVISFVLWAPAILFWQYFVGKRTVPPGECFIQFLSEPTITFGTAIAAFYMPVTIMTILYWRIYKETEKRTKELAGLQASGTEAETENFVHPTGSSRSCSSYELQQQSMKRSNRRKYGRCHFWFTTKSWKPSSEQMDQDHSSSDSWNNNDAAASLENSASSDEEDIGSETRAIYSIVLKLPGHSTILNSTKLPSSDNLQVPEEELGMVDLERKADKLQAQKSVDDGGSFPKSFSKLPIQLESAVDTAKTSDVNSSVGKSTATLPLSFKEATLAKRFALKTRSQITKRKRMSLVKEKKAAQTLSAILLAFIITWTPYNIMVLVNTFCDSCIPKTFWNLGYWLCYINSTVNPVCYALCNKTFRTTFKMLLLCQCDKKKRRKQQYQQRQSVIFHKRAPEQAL

[7] = target: Histamine H1 receptor (Homo sapiens) (UniProt P35367); test: Inhibition of histamine H1 receptor
Sequence of Histamine H1 receptor (Homo sapiens) (P35367 whole entry): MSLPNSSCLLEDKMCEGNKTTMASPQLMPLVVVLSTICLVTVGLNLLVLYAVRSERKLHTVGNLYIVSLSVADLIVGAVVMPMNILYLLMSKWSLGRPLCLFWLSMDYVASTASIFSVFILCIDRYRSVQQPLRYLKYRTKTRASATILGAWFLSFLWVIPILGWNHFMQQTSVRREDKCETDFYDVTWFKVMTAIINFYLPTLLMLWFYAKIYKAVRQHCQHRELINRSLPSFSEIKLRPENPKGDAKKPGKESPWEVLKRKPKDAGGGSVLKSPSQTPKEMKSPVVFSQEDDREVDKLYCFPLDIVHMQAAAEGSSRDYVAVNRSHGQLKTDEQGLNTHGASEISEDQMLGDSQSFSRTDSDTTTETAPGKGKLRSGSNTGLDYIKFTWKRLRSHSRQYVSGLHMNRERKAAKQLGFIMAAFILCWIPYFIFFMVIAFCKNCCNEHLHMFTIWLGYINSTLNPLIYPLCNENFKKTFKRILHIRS

[8] = target: Sodium-dependent noradrenaline transporter (Homo sapiens) (UniProt P23975); test: Inhibition of NET
Sequence of Sodium-dependent noradrenaline transporter (Homo sapiens) (P23975 whole entry): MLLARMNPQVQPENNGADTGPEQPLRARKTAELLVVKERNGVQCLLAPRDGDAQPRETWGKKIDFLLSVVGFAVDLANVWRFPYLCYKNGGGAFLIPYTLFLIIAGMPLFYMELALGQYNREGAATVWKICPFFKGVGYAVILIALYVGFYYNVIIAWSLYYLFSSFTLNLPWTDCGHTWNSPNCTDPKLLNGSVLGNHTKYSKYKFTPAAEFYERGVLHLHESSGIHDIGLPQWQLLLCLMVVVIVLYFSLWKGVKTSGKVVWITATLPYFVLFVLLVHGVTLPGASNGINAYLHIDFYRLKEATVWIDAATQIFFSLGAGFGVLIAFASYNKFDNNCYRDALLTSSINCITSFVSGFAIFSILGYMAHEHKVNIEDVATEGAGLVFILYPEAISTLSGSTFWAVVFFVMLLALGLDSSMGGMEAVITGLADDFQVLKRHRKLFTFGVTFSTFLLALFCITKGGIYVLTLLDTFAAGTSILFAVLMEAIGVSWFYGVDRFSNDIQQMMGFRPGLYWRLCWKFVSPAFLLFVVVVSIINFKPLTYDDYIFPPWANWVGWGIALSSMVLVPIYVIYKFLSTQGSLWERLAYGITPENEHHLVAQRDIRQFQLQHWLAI

[9] = target: T6, Muscarinic acetylcholine receptor M1 (Homo sapiens) (UniProt P11229); test: Positive allosteric modulation of muscarinic M1 receptor expressed in CHO cells assessed as potentiation of acetylcholine-induced intracellular calcium mobilization at 30 uM after 1 hr by FLIPR assay relative to acetylcholine; format: functional, cell-based
T6 sequence (whole entry): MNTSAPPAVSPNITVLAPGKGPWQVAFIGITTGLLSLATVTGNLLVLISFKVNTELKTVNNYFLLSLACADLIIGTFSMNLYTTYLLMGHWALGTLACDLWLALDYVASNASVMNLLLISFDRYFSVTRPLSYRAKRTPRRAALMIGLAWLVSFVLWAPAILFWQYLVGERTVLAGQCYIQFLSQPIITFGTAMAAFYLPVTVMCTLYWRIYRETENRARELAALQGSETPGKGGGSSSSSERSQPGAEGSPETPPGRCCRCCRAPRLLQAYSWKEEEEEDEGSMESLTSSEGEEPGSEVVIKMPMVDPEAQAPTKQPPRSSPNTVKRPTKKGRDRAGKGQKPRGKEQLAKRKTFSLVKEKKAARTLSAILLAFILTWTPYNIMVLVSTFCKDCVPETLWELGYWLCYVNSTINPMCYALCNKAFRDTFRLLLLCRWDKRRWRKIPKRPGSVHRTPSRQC

[10] = target: T7, Muscarinic acetylcholine receptor M2 (Homo sapiens) (UniProt P08172); test: Positive allosteric modulation of muscarinic M2 receptor expressed in CHO cells co-expressing Gqi5 assessed as potentiation of acetylcholine-induced intracellular calcium mobilization at 30 uM after 1 hr by FLIPR assay relative to acetylcholine; format: functional, cell-based
T7 sequence (whole entry): T2 sequence (P08172 whole entry)

[11] = target: T5, Muscarinic acetylcholine receptor M5 (Homo sapiens); test: Positive allosteric modulation of muscarinic M5 receptor expressed in CHO cells assessed as effect on acetylcholine-induced intracellular calcium mobilization after 1 hr by FLIPR assay relative to acetylcholine; format: functional, cell-based
[12] = Partition coefficient, log P of the compound; format: physicochemical; settings: octanol/water

Row | Structure (SMILES) | EC50 [1] | EC50 [2] | EC50 [3] | Activity [4] | fold change (FC) [5] | Activity [6] | inhibition [7] | inhibition [8] | Activity [9] | Activity [10] | Emax [11] | logP [12]
1 | O=C1C(=O)N(Cc2ccc(Br)cc2)c2ccccc21 | > 30 µM | > 30 µM | 4.6 µM |  |  |  |  |  |  |  |  | 
2 | O=C1C(=O)N(Cc2ccc(Oc3cccc(F)n3)cc2)c2ccc(OC(F)(F)F)cc21 |  |  | 1.5 µM | inactive | 6 | inactive | Active | Active | inactive | inactive | 62% | 
3 | O=C1C(=O)N(Cc2ccc(-c3ccccc3)nc2)c2ccc(OC(F)(F)F)cc21 |  |  | 3.8 µM | inactive | 14 | inactive |  |  | inactive | inactive | 76% | 3.6
